In patent US20240376165A1, “COMPOSITION COMPRISING VGLL1 PEPTIDE FOR TREATMENT OF CANCER” (ONECUREGEN CO., LTD., priority 2020, published 2024):
d = 2'-deoxy (DNA); r = 2'-OH (RNA)

Tests used:
[1] = tested on: stomach cancer cell line NUGC3; assay: Cancer cell proliferation with peptide variants, real-time cell analysis (Incucyte); type: cell-based, human; settings: NUGC3, 60 μM peptide, FIG. 11
Procedure: The stomach cancer cell line NUGC3 was cultured in a 96-well plate, and the next day, the cells were treated with 60 μM peptide. The cell proliferation was analyzed using a real-time cell analysis system (product name: Incucyte).
FIG. 11A is a graph of real-time cell proliferation, and FIG. 11B is a graph showing cell proliferation after 4 days based on 100% control peptide.

[2] = tested on: MMP9 promoter; assay: MMP9 promoter luciferase activity after TGF-β treatment; type: cell-based, human; settings: NUGC3, 20 nM siRNA, TGF-β 18 hours, compared to control (siSC), FIG. 3
Procedure: In order to determine whether VGLL1 and TEAD4 were involved in MMP9 promoter activity in NUGC3 human stomach cancer cell line, the MMP9 promoter luciferase activity was investigated after TGF-β treatment.
Specifically, the stomach cancer cell NUGC3 was cultured in a 48-well plate at a concentration of 2× 10^4 cells/well. The next day, the MMP9 gene-inserted pGL4.17-luciferase vector was transfected into cells using Lipofectamine 2000. After 24 hours, 20 nM siSC (SEQ ID NO: 23: 5′-CCUACGCCACCAAUUUCGUdTdT-3′) siVGLL1 (SEQ ID NO 24: 5′-[…]dTdT-3′), siTEAD4 (SEQ ID NO 25: 5′-GACACUACUCUUACCGCAUdTdT-3′), and siYAP (SEQ ID NO 26: 5′-CCACCA AGCUAGAUAAAGAAAdTdT-3′) were mixed with Lipofectamine 2000, and the cells were treated with the mixture. The next day, the cells were treated with TGF-β for 18 hours. Thereafter, the cells were disrupted using a passive lysis buffer. Then, after centrifuging cells, a supernatant was obtained. […] At this time, the degree of luminescence of the cells was checked using Victor X Light.

[3] = tested on: MMP9; assay: MMP9 mRNA expression after TGF-β treatment, RT-PCR; type: cell-based, human; settings: NUGC3, 20 nM siRNA, TGF-β 18 hours, compared to control (siSC), FIG. 4
Procedure: In order to determine whether VGLL1 and TEAD4 were involved in MMP9 mRNA expression in NUGC3 human stomach cancer cells, MMP9 mRNA expression was examined by RT-PCR after TGF-β treatment.
Specifically, the stomach cancer cell line NUGC3 was cultured in a 6-well plate. The next day, 20 nM siSC, siVGLL1, siTEAD4, and siYAP were mixed with Lipofectamine 2000, and the cell line was treated with the mixture. The next day, after treatment with TGF-β for 18 hours, mRNA was extracted from the cells and complementary DNA was synthesized, followed by RT-PCR.

[4] = tested on: MMP9; assay: MMP9 expression by TGF-β treatment, RT-PCR; type: cell-based, human; settings: NUGC3, RT-PCR, after 6 hours of TGF-β treatment, FIG. 1
Procedure: In order to confirm the expression change of MMP9 according to TGF-β treatment in stomach cancer cell lines, the human stomach cancer cell line NUGC3 was treated with TGF-β at each time period, then mRNA was extracted from the cells, and complementary DNA was synthesized. Then RT-PCR was performed using Matrix metalloproteinase 9 (MMP9) primers (Table 4).

[5] = tested on: stomach cancer cell line NUGC3; assay: Cancer cell proliferation, real-time cell analysis (IncuCyte Zoom); type: cell-based, human; settings: FIG. 9
Procedure: Specifically, the stomach cancer cell line NUGC3 was cultured in a 96-well plate. The next day, the cells were treated with the peptide fragment. The cell proliferation was analyzed using a real-time cell analysis system (product name: IncuCyte Zoom).

[6] = tested on: MMP9; assay: MMP9 knockdown by siRNA, RT-PCR; type: cell-based, human; settings: NUGC3, 20 nM siRNA, 48 hours, FIG. 2A
Procedure: Specifically, the stomach cancer cells line NUGC3 was cultured in a 6-well plate overnight, and then treated with the mixture of Lipofectamine 2000 and 20 nM siSC or siMMP9 (SEQ ID NO: 22) and. After 48 hours, mRNA was extracted from the cells and complementary DNA was synthesized, followed by RT-PCR using the MMP9 primer (FIG. 2A).

[7] = tested on: stomach cancer cell line NUGC3; assay: Matrigel cell invasion after siRNA; type: cell-based, human; settings: NUGC3, siRNA knockdown cells, Matrigel insert, 48 hours, FIG. 2C
Procedure: (§1) Next, in order to confirm the cell invasive ability of MMP9, a cell culture insert was fixed in a 24-well plate. Matrigel was diluted 20-fold, and 100 μl of diluent was added. The reaction was carried out at 37° C. for 1 hour or longer. 700 μl of medium containing 10% serum was added to a 24-well plate under the insert. MMP knockdown cells with the above siRNA were added to the insert according to 300 μl of serum-free medium to a concentration of 5×10^5. After 48 hours, the insert was removed and cells were fixed in 10% formalin solution. Cells remaining inside the insert were removed with a cotton swab and washed with water. Cells were stained with 0.4% Sulforhodamine B solution for 1 hour, washed with acetic acid, and dried. Then, a photograph was taken with an optical microscope, the membrane on the insert was cut, and Sulforhodamine B in stained cells was dissolved in 10 mM Tris solution, and absorbance was measured at 540 nm using an ELISA plate reader (FIG. 2C).

[8] = tested on: stomach cancer cell line NUGC3; assay: Cell proliferation after siRNA, Sulforhodamine B staining; type: cell-based, human; settings: NUGC3, 20 nM siRNA, 48 hours, FIG. 2B
Procedure: In addition, in order to confirm the cell proliferation ability of MMP9, the stomach cancer cell line NUGC3 was cultured in a 96-well plate. The next day, cells were treated with the mixture of Lipofectamine 2000 and 20 nM siSC or siMMP9. After 48 hours, cells were fixed using 1% formalin solution. Thereafter, the cells were stained with 0.4% Sulforhodamine B solution for 1 hour, washed with acetic acid, and dried. Then, the cells were dissolved in a 10 mM Tris solution, and absorbance was measured at 540 nm using an ELISA plate reader (FIG. 2B).

[9] = tested on: MMP9; assay: MMP9 protein expression induced by TGF-β, western blot, peptide treatment; type: cell-based, human; settings: NUGC3, TGF-β and peptide for 18 hours, FIG. 8
Procedure: To evaluate whether the peptide fragment that interferes the binding between VGLL1 and TEAD4 can inhibit MMP9 expression in human stomach cancer cells, peptides shown in Table 6 were prepared to examine their effects on MMP9 expression.
Experiments were performed using the synthetic peptide fragments. The stomach cancer NUGC3 cells were cultured in a 6-well plate. The next day, cells were cultured in serum-free cell culture for 24 hours. TGF-β and a control peptide fragment (SEQ ID NO: 12), a peptide fragment containing serine at position 84 of VGLL1 (SEQ ID NO: 27), and a mutant peptide fragment containing alanine at position 84 of VGLL1 (SEQ ID NO: 28) were treated into cells for 18 hours. Proteins were extracted from the cells using a Ripa buffer and were separated by electrophoresis. Thereafter, protein expression of genes was confirmed by using an antibody on the polyvinylidene fluoride membrane.

[10] = tested on: stomach cancer cell line NUGC3; assay: Cancer cell invasion with peptide fragment; type: cell-based, human; settings: NUGC3, insert, 48 hours, FIG. 10
Procedure: as §1
A method similar to Example 1-2 was performed for stomach cancer cell invasion experiment by the VGLL1 peptide fragment.
The stomach cancer cell line NUGC3 was placed in an insert together with the peptide fragment. After 48 hours of cell culture, the insert was fixed in a 10% formalin solution, and the downwardly migrated cells were confirmed by staining with 0.4% Sulforhodamine B solution.

[11] = target: T1, GFP-TEAD4, expressed from the GFP-TEAD4 vector (UniProt Q15561 1-434); assay: co-immunoprecipitation with HA antibody agarose, western blot with GFP antibody
T1 construct: Detected with GFP antibody in the HA immunoprecipitate; also called transcription factor TEAD4; not shown: GFP tag
T1 sequence (Q15561 whole entry): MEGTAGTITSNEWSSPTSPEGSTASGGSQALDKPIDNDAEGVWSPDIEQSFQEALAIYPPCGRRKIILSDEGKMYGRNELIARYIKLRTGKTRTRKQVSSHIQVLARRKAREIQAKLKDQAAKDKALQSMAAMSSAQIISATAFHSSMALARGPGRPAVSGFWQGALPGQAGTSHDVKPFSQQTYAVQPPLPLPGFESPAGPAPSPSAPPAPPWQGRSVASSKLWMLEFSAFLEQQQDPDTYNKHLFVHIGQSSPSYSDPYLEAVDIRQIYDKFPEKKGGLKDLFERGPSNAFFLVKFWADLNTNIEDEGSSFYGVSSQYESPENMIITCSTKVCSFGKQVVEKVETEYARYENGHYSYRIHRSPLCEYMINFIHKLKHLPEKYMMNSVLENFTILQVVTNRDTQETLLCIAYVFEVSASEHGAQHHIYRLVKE
Procedure: Specifically, the GFP-TEAD4 vector and pcDNA3-HA (EV), pcDNA3-HA-VGLL1 (WT), pcDNA3-HA-VGLL1-S50A (S50A mutation), pcDNA3-HA-VGLL1-S84A (S84A mutation), and pcDNA3-HA-VGLL1-S124A (S124A mutation) were mixed with Turbofect. The mixture was transformed to the cell lines cultured for 24 hours. After 48 hours, the protein was extracted from the cells using a Ripa buffer. The extracted protein was subjected to immunoprecipitation using agarose bound with HA antibody and separated by electrophoresis. Thereafter, western blot analysis was performed using an antibody on the polyvinylidene fluoride membrane.

YGRKKRRQRRR-PNQWRYSSAWTKPQP (YGRKKRRQRRRPNQWRYSSAWTKPQP; HIV TAT sequence linked; Tat-VGLL1(P85A)) [VGLL1 P85A]
inhibition of cancer cell proliferation [1]: excellent effect in inhibiting cancer cell proliferation

5′-AGCCUAUAAAGACGGAAUGGAAUdTdT-3′ (sense AGCCUAUAAAGACGGAAUGGAAUTT; sugars from the 5' end r23 d2, backbone not given here) [siVGLL1, siRNA against VGLL1]
MMP9 promoter activity increased by TGF-β [2]: decreased | MMP9 mRNA expression increased by TGF-β [3]: decreased

Transforming growth factor-β [TGF-β]
expression of MMP9 [4]: increased

YGRKKRRQRRR (HIV-1 Tat) [Control peptide]
inhibition of cancer cell proliferation [5]: did not have any effect

5′-GACACUACUCUUACCGCAUdTdT-3′ [siTEAD4]
MMP9 promoter activity increased by TGF-β [2]: decreased | MMP9 mRNA expression increased by TGF-β [3]: decreased

YGRKKRRQRRR-YSSPWTK (YGRKKRRQRRRYSSPWTK; HIV TAT sequence linked; Tat-VGLL1(S84-S)) [VGLL1 S84-S]
inhibition of cancer cell proliferation [1]: excellent effect in inhibiting cancer cell proliferation

5′-CCACAACAUCACCUAUUGGAUdTdT-3′ [siMMP9]
expression of MMP9 [6]: reduced expression of MMP9 | cell invasiveness [7]: greatly reduced cell invasiveness | cell viability [8]: greatly reduced cell viability

YGRKKRRQRRRPNQWRYSAPWTKPQP (HIV TAT domain linked; Tat-VGLL1(S84A)) [VGLL1 (S84A), reference compound]
increased MMP9 expression by TGF-β [9]: not affected | inhibition of cancer cell proliferation [5]: did not have any effect | inhibition of cancer cell invasion [10]: did not exhibit such an effect

YGRKKRRQRRR-PNQWRYSSPWAKPQP (YGRKKRRQRRRPNQWRYSSPWAKPQP; HIV TAT sequence linked; Tat-VGLL1(T87A)) [VGLL1 T87A]
inhibition of cancer cell proliferation [1]: excellent effect in inhibiting cancer cell proliferation

B1: HA-VGLL1-S84A, expressed from pcDNA3-HA-VGLL1-S84A (other)
chain: MEEMKKTAIRLPKGKQKPIKTEWNSRCVLFTYFQGDISSVVDEHFSRALSNIKSPQELTPSSQSEGVMLKNDDSMSPNQWRYSAPWTKPQPEVPVTNRAANCNLHVPGPMAVNQFSPSLARRASVRPGELWHFSSLAGTSSLEPGYSHPFPARHLVPEPQPDGKREPLLSLLQQDRCLARPQESAARENGNPGQIAGSTGLLFNLPPGSVHYKKLYVSRGSASTSLPNETLSELETPGKYSLTPPNHWGHPHRYLQHL
notes: Serine 84 of VGLL1 replaced with alanine by site-directed mutagenesis in the pcDNA3-HA-VGLL1 vector; also called S84A mutation; not shown: HA tag from the pcDNA3-HA vector
binding result [11]: no binding
